Experimental data published in US6696440B1, “Treatment of asthma with MEK inhibitors” (Warner-Lambert Company, priority 1999, dated 2004).
Marks after values point to notes of the source that are not given here.

What was measured:
[1] = tested on: OVA-primed splenocytes; experiment: Inhibition of antigen-induced IL-5 production by OVA-primed splenocytes in vitro; assay type: cell-based, mice; conditions: Mus musculus, Splenocyte, 72 h; OVA-sensitized splenocytes cultured 3 days with 200 μg/mL OVA; IL-5 by ELISA
Procedure: (§1) For each of these assays, female C57BL/6 mice obtained from the Jackson Laboratory (Bar Harbor, Me.) were given an intraperitoneal (i.p.) injection of ovalbumin (OVA, Grade V, Sigma Chemical Company, St. Louis, Mo.) adsorbed to aluminum hydroxide (10 μg OVA+9 mg aluminum hydroxide in 200 μL saline). This sensitizes OVA-specific lymphocytes for subsequent restimulation either in vivo or in vitro.
The first set of experiments was designed to determine whether the MEK inhibitors could prevent antigen-induced production of IL-5 by the OVA-primed splenocytes in vitro. IL-5 is required for the differentiation, migration, and survival of pulmonary eosinophils, which are thought to be responsible for much of the pathology associated with human asthma. In order to examine the effects of MEK inhibitors on IL-5 production, OVA-sensitized mice were sacrificed by cervical dislocation 14 days after sensitization (Day 14), the spleens were excised and disaggregated, and the erythrocytes were lysed. The splenocytes were washed and resuspended at […] in complete medium consisting of RPMI 1640 (Gibco BRL, Gaithersburg, Md.) with 10% heat-inactivated fetal calf serum (Hyclone, Logan, Utah), 55 μM 2-mercaptoethanol, 50 U/mL penicillin G, 50 μg/mL streptomycin sulfate, and 2 mM L-glutamine (Gibco BRL). The splenocytes were then cultured at 37° C. in the presence of 200 μg/mL OVA. MEK inhibitors were also added to the cultures from sterile 10 mM stock solutions (in DMSO). After 3 days, the culture medium was recovered and assayed for IL-5 by specific ELISA.

[2] = tested on: BAL eosinophils; experiment: Adoptive (passive) transfer of eosinophilic lung inflammation by MEK inhibitor-treated splenocytes; assay type: in vivo; conditions: spleen cell culture treated with 10 μM compound; cells transferred to naive mice; OVA aerosol challenge
Procedure: as §1
When OVA-sensitized spleen cells are restimulated with OVA in vitro for 3 days, as described above, the spleen cells not only produce IL-5, but also acquire the ability to induce eosinophilic lung inflammation when transferred into naive recipient mice. The critical cell type responsible for this adoptively-transferred activity is thought to be IL-5-producing T lymphocytes. […] Splenocytes from OVA restimulation cultures, with or without the addition of MEK inhibitors were harvested after 3 days of culture, washed three times, and resuspended at 1×10^8 cells/mL in sterile saline. Groups of five naive (unsensitized) […] mice were injected i.p. with 200 μL of the cell suspension (2×10^7 cells). Three days after transfer of cells, the recipient mice were challenged with a 12-minute inhalation of an aerosol formulation of 1.5% OVA in saline (weight/volume), the mist being produced by a nebulizer (small particle generator model SPAG-2, ICN Pharmaceuticals, Costa Mesa, Calif.). Three days after aerosol challenge, the mice were anesthetized with an i.p. injection of an anesthetic mixture comprising Ketamine, acepromazine, and xylazine. The trachea of each mouse was exposed and cannulated. The lungs and upper airways were lavaged with 0.5 mL of cold (5° C.) phosphate buffered saline (PBS). The cells within a 200 μL portion of the bronchoalveolar lavage (BAL) fluid were enumerated using a Coulter counter (Model ZB 1, Coulter Electronics, Hialeah, Fla.). […] The number of eosinophils in the BAL fluid was determined by multiplying the percentage of eosinophils by the total cell count.

[3] = tested on: BAL eosinophils; experiment: Active OVA-induced eosinophilic lung inflammation in mice, oral dosing; assay type: in vivo; conditions: for % Inhibition of BAL Eosinophils / % Inhibition of BAL Eosinophilia: oral; for % Inhibition of BAL Eosinophilia: 4 days (Day 13 to Day 16); for activity against BAL eosinophils (in words): multiple doses, dosing for 4 days (Table 4); for inhibitory activity against BAL eosinophils (in words): oral dosing schedule of 9 days (Table 5)
Procedure: as §1
The final set of experiments was designed to test whether MEK inhibitors could inhibit active OVA-induced eosinophilic lung inflammation in mice. Mice were sensitized with OVA/aluminum hydroxide on Day 0 as described above. On Day 14, the mice were challenged by aerosol with 1.5% OVA, as described above for the adoptive-transfer recipients. One group of eight sensitized mice was dosed orally with vehicle (0.5% hydroxypropylmethylcellulose/0.25% TWEEN-80). Other groups of sensitized mice (8 mice per group) were given oral doses of a MEK inhibitor. The test compound was dissolved in the vehicle, and the volume for each dosage was adjusted to 200 μL, so that each test animal received the same oral volume. In experiments reported in Table 3 and Table 4, the MEK inhibitor was administered starting on Day 13 (ie, 13 days after initial sensitization and 1 day prior to aerosol challenge), and continued daily through Day 16 (4 days total). In experiments reported in Table 5, the MEK inhibitor was administered starting on Day 7 (ie, 7 days after initial sensitization and 7 days prior to aerosol challenge), and continued daily through […]. On Day 17 of each experiment (17 days following the initial OVA challenge, and 3 days after the OVA aerosol challenge), all animals including controls were anesthetized, cannulated, and lavaged as previously described. The number of BAL eosinophils was determined as described above.

[4] = 4-day compound dosing, 10 mg/kg
[5] = 4-day compound dosing, 30 mg/kg
[6] = 4-day compound dosing, 100 mg/kg

Structure (SMILES): Cc1cc(I)ccc1Nc1cc(F)ccc1C(=O)O [Example 1, 4-Fluoro-2-(4-iodo-2-methylphenylamino)benzoic Acid]
- melting point: 224 to 229.5 °C

Structure (SMILES): Cc1cc(I)ccc1Nc1ccccc1C(=O)O [Example 19, 2-(4-Iodo-2-methyl-phenylamino)-benzoic acid]
- melting point: 218 to 223 °C

Structure (SMILES): COc1ccc(Nc2ccc(I)cc2)c(C(=O)O)c1 [Example 24, 2-(4-Iodo-phenylamino)-5-methoxy-benzoic acid]
- melting point: 208 to 211 °C

Structure (SMILES): Cc1cc(I)ccc1Nc1ccccc1-c1nnn[nH]1 [Example 208, (4-iodo-2-methyl-phenyl)-[2-(1H-tetrazol-5-yl)-phenyl]amine]
- melting point: 231 °C (dec.)

Structure (SMILES): COc1cccc(-c2cc(=O)c3ccccc3o2)c1N [PD 098059, 2-(2-amino-3-methoxyphenyl)-4-oxo-4H-[1]benzopyran, reference compound]
- IC50 [1]: 17400 nM

Structure (SMILES): Cc1cc(I)ccc1Nc1cc(F)ccc1C(=O)NO [PD 170611, 2-(2-Methyl-4-iodophenylamino)-N-hydroxy-4-fluorobenzamide]
- melting point: 61 to 75 °C
- IC50 [1]: 1120 nM

Structure (SMILES): Cc1cc(I)ccc1Nc1c(C(=O)NO)cc(Br)c(F)c1F [PD 171984, 2-(2-Methyl-4-iodophenylamino)-N-hydroxy-3,4-difluoro-5-bromobenzamide]
- % Inhibition of BAL Eosinophils [2]: 99.82%
- melting point: 80 to 90 °C
- % Inhibition of BAL Eosinophils [3, 4]: 38.4* %
- % Inhibition of BAL Eosinophils [3, 5]: 46.6* %
- % Inhibition of BAL Eosinophils [3, 6]: 58.4* %
- % Inhibition of BAL Eosinophils ([3]; 9-day compound dosing, 10 mg/kg, Experiment 1): −13.74%
- % Inhibition of BAL Eosinophils ([3]; 9-day compound dosing, 10 mg/kg, Experiment 2): 50.15* %
- % Inhibition of BAL Eosinophils ([3]; 9-day compound dosing, 30 mg/kg, Experiment 1): 80.64* %
- % Inhibition of BAL Eosinophils ([3]; 9-day compound dosing, 30 mg/kg, Experiment 2): 37.23* %
- % Inhibition of BAL Eosinophils ([3]; 9-day compound dosing, 100 mg/kg, Experiment 1): 88.40* %
- % Inhibition of BAL Eosinophils ([3]; 9-day compound dosing, 100 mg/kg, Experiment 2): 54.77* %
- % Inhibition of BAL Eosinophilia ([3]; Dose 100): 55.26* %
- inhibition of pulmonary eosinophilia (in words) ([3]; initial analysis, dosed orally for 4 days (Table 3)): demonstrated any inhibition of pulmonary eosinophilia
- activity against BAL eosinophils (in words) [3]: appears active
- inhibitory activity against BAL eosinophils (in words) [3]: statistically significant inhibitory activity
- IC50 [1]: 117 nM

Structure (SMILES): Cc1cc(I)ccc1Nc1c(C(=O)NOCC2CC2)cc(Br)c(F)c1F [PD 177168, 2-(2-Methyl-4-iodophenylamino)-N-cyclopropylmethoxy-3,4-difluoro-5-bromobenzamide]
- % Inhibition of BAL Eosinophilia ([3]; Dose 100): −23.38%
- IC50 [1]: 1200 nM

Structure (SMILES): O=C(NOCC1CC1)c1cc(Br)c(F)c(F)c1Nc1ccc(I)cc1Cl [PD 184161, 2-(2-Chloro-4-iodophenylamino)-N-cyclopropylmethoxy-3,4-difluoro-5-bromobenzamide]
- % Inhibition of BAL Eosinophilia ([3]; Dose 100): −32.53%
- IC50 [1]: 1150 nM

Structure (SMILES): O=C(NOCC1CC1)c1ccc(F)c(F)c1Nc1ccc(I)cc1Cl [PD 184352, 2-(2-Chloro-4-iodophenylamino)-N-cyclopropylmethoxy-3,4-difluorobenzamide]
- % Inhibition of BAL Eosinophils [2]: 99.46%
- % Inhibition of BAL Eosinophils [3, 4]: −22.7%
- % Inhibition of BAL Eosinophils [3, 5]: −153.8%
- % Inhibition of BAL Eosinophils [3, 6]: −8.2%
- % Inhibition of BAL Eosinophils ([3]; 9-day compound dosing, 10 mg/kg): −42.99%
- % Inhibition of BAL Eosinophils ([3]; 9-day compound dosing, 30 mg/kg): 1.83%
- % Inhibition of BAL Eosinophils ([3]; 9-day compound dosing, 100 mg/kg): 59.85%
- % Inhibition of BAL Eosinophilia ([3]; Dose 150): −5.41%
- activity against BAL eosinophils (in words) [3]: does not
- inhibitory activity against BAL eosinophils (in words) [3]: shown to inhibit the asthma-like response in mice
- IC50 [1]: 1620 nM

Structure (SMILES): O=C(NO)c1cc(Br)c(F)c(F)c1Nc1ccc(I)cc1Cl [PD 184386, 2-(2-Chloro-4-iodophenylamino)-N-hydroxy-3,4-difluoro-5-bromobenzamide]
- % Inhibition of BAL Eosinophils [2]: 99.78%
- % Inhibition of BAL Eosinophilia ([3]; Dose 100): −33.24%
- IC50 [1]: 23 nM
